20 compounds from patent US20250281424A1 (New York Blood Center, Inc, priority 2020, published 2025) can be followed below.

The experiment concerns the target T1, human PF4 (Homo sapiens, UniProt P02776).
T1 construct: PF4 is a 70 amino acid, lysine-rich 7.8 kDa platelet-specific protein; made in house; host or cells: Escherichia coli BL21DE3 pLysS (pT7-7) and/or Drosophila S2 cells
T1 sequence (P02776 32-101): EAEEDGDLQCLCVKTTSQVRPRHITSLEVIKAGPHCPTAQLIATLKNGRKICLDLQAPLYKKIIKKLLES
The experiment is described as follows: Inhibition of PF4 tetramer formation (BS3 cross-linking, SDS-PAGE). It counts as biochemical. The note with it: for inhibition at 5 µM: 5 μM inhibitor; for inhibition at 5 µM / inhibition at 10 µM / inhibition at 1 µM / inhibition at 3 µM: read-out: % inhibition of PF4 tetramer formation at single concentration of inhibitor; for inhibition at 10 µM: 10 μM inhibitor (column A); for IC50: read-out: IC50 of PF4 tetramer formation inhibition; for inhibition at 1 µM: 1 μM inhibitor; for inhibition at 3 µM: 3 μM inhibitor (column A). An outline of the steps: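 Recombinant human wild-type PF4 (E. coli-expressed, heparin-purified), 10 μg/ml in PBS, incubated with compound 15 min at 37° C or 60 min at room temperature, then cross-linked with 0.2 mM BS3 for 30 min at room temperature. Reducing 12% SDS-PAGE; bands quantified as % tetramer, trimer, dimer, monomer versus compound-free control.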

Structures are written as SMILES.

The term IC50 denotes the concentration that gives 50% inhibition. For `CC(C)(C)OC(=O)N[C@@H](CC(=O)O)C(=O)C1C(=O)c2ccc(C(=O)c3ccc4c(c3)C(=O)C(C(=O)[C@H](CC(=O)O)NC(=O)OC(C)(C)C)C4=O)cc2C1=O` (stereo partly drawn) [Example 188, (3S)-3-{[(tert-butoxy)carbonyl]amino}-4-(5-{2-[(2S)-2-{[(tert-butoxy)carbonyl]amino}-3-carboxypropanoyl]-1,3-dioxo-2,3-dihydro-1H-indene-5-carbonyl}-1,3-dioxo-2,3-dihydro-1H-inden-2-yl)-4-oxobutanoic acid], the inhibition at 5 µM came to 88%, the inhibition at 10 µM was 94% and the IC50 came to 2300 nM.
`COCCC(=O)C1C(=O)c2ccc(S(=O)(=O)c3ccc4c(c3)C(=O)C(C(=O)CCOC)C4=O)cc2C1=O` (centres unmarked) [Example 177, 2-(3-methoxypropanoyl)-5-{[2-(3-methoxypropanoyl)-1,3-dioxo-2,3-dihydro-1H-inden-5-yl]sulfonyl}-2,3-dihydro-1H-indene-1,3-dione]: the inhibition at 5 µM came out at 0% and the inhibition at 10 µM amounted to 17%.
With `O=C(NC1CC1)C1C(=O)c2ccc(Oc3ccc4c(c3)C(=O)C(C(=O)NC3CC3)C4=O)cc2C1=O` (centres unmarked) [Example 106, N-cyclopropyl-5-{[2-(cyclopropylcarbamoyl)-1,3-dioxo-2,3-dihydro-1H-inden-5-yl]oxy}-1,3-dioxo-2,3-dihydro-1H-indene-2-carboxamide], the IC50 is roughly 4000 nM.
Consider `O=C(c1ccc2c(c1)C(=O)C(C(=O)[C@@H]1CCCN1C(=O)OCc1ccccc1)C2=O)c1ccc2c(c1)C(=O)C(C(=O)[C@@H]1CCCN1C(=O)OCc1ccccc1)C2=O` (stereo partly drawn) [Example 125, benzyl (2S)-2-(5-{2-[(2S)-1-[(benzyloxy)carbonyl]pyrrolidine-2-carbonyl]-1,3-dioxo-2,3-dihydro-1H-indene-5-carbonyl}-1,3-dioxo-2,3-dihydro-1H-indene-2-carbonyl)pyrrolidine-1-carboxylate], for which the inhibition at 5 µM stood at 87%, the inhibition at 10 µM came out at 93% and the half-inhibitory concentration (IC50) was determined as 1200 nM.
As for `O=C(c1ccc2c(c1)C(=O)C(C(=O)NC1CC1)C2=O)c1ccc2c(c1)C(=O)C(C(=O)NC1CC1)C2=O` (centres unmarked) [Example 21, 5,5′-carbonylbis(1,3-dioxo-indan-2-carboxylic acid (cyclopropyl)-amide)], the inhibition at 5 µM is 27% and the inhibition at 10 µM was determined as 46%.
As to `CSCCCC(=O)C1C(=O)c2ccc(S(=O)(=O)c3ccc4c(c3)C(=O)C(C(=O)CCCSC)C4=O)cc2C1=O` (centres unmarked) [Example 285, 2-[4-(methylsulfanyl)butanoyl]-5-({2-[4-(methylsulfanyl)butanoyl]-1,3-dioxo-2,3-dihydro-1H-inden-5-yl}sulfonyl)-2,3-dihydro-1H-indene-1,3-dione], the inhibition at 1 µM amounted to 33%, the inhibition at 3 µM was 49% and the IC50 amounted to 3000 nM.
As to `O=C(c1ccc2c(c1)C(=O)C(C(=O)NC1CCCC1)C2=O)c1ccc2c(c1)C(=O)C(C(=O)NC1CCCC1)C2=O` (centres unmarked) [Example 71, 5,5′-carbonylbis(n-cyclopentyl-1,3-dioxo-2,3-dihydro-1h-indene-2-carboxamide)], the inhibition at 5 µM stood at 2%, the inhibition at 10 µM amounted to 85% and the 50% inhibitory concentration (IC50) stood at 1000 nM.
Taken in the same sequence, the figures for `CC(C)(C)OC(=O)N[C@@H](C(=O)C1C(=O)c2ccc(S(=O)(=O)c3ccc4c(c3)C(=O)C(C(=O)[C@H](NC(=O)OC(C)(C)C)c3ccccc3)C4=O)cc2C1=O)c1ccccc1` (some centres unmarked) [Example 182] were 74%, 88% and 5700 nM.
`O=C(c1ccc2c(c1)C(=O)C(Br)C2=O)c1ccc2c(c1)C(=O)C(Br)C2=O` (centres unmarked) [Example 244, 2-bromo-5-(2-bromo-1,3-dioxo-2,3-dihydro-1H-indene-5-carbonyl)-2,3-dihydro-1H-indene-1,3-dione]: the inhibition at 1 µM turned out to be 21% and the inhibition at 3 µM is 43%.
With `C[C@H](NC(=O)OC(C)(C)C)C(=O)C1C(=O)c2ccc(S(=O)(=O)c3ccc4c(c3)C(=O)C(C(=O)[C@H](C)NC(=O)OC(C)(C)C)C4=O)cc2C1=O` (stereo partly drawn) [Example 180, tert-butyl N-[(2S)-1-[5-({2-[(2S)-2-{[(tert-butoxy)carbonyl]amino}propanoyl]-1,3-dioxo-2,3-dihydro-1H-inden-5-yl}sulfonyl)-1,3-dioxo-2,3-dihydro-1H-inden-2-yl]-1-oxopropan-2-yl]carbamate], the inhibition at 5 µM came out at 73%, the inhibition at 10 µM amounted to 90% and the IC50 is roughly 6000 nM.
Consider `CC(C)(C)OC(=O)N1C[C@H](F)C[C@H]1C(=O)C1C(=O)c2ccc(-c3ccc4c(c3)C(=O)C(C(=O)[C@@H]3C[C@@H](F)CN3C(=O)OC(C)(C)C)C4=O)cc2C1=O` (stereo partly drawn) [Example 215, tert-butyl (2S,4R)-2-{2′-[(2S,4R)-1-[(tert-butoxy)carbonyl]-4-fluoropyrrolidine-2-carbonyl]-1,1′,3,3′-tetraoxo-1H,1′H,2H,2′H,3H,3′H-[5,5′-biindene]-2-carbonyl}-4-fluoropyrrolidine-1-carboxylate], for which the IC50 stood at 2400 nM.
As for `CC(C)(C)OC(=O)NCC(=O)C1C(=O)c2ccc(S(=O)(=O)c3ccc4c(c3)C(=O)C(C(=O)CNC(=O)OC(C)(C)C)C4=O)cc2C1=O` (centres unmarked) [Example 174, tert-butyl N-[2-(5-{[2-(2-{[(tert-butoxy)carbonyl]amino}acetyl)-1,3-dioxo-2,3-dihydro-1H-inden-5-yl]sulfonyl}-1,3-dioxo-2,3-dihydro-1H-inden-2-yl)-2-oxoethyl]carbamate], the inhibition at 5 µM was 84%, the inhibition at 10 µM was found to be 94% and the IC50 came to 11000 nM.
With `O=C(NCC1CCS(=O)(=O)C1)C1C(=O)c2ccc(S(=O)(=O)c3ccc4c(c3)C(=O)C(C(=O)NCC3CCS(=O)(=O)C3)C4=O)cc2C1=O` (centres unmarked) [Example 358, N-[(1,1-dioxo-1λ^6-thiolan-3-yl)methyl]-5-[(2-{[(1,1-dioxo-1λ^6-thiolan-3-yl)methyl]carbamoyl}-1,3-dioxo-2,3-dihydro-1H-inden-5-yl)sulfonyl]-1,3-dioxo-2,3-dihydro-1H-indene-2-carboxamide], the inhibition at 1 µM amounted to 24% and the inhibition at 3 µM is 46%.
Regarding `O=C1CC(=O)c2cc(Oc3ccc4c(c3)C(=O)CC4=O)ccc21` [Example 7, 5-(2,3-dihydro-1,3dioxo-1h-inden-6-yloxy)-2,3-dihydro-1,3-dioxo-1h-indene], the IC50 is 1120 nM.
`CC(C)(C)OC(=O)N1CSC[C@@H]1C(=O)C1C(=O)c2ccc(S(=O)(=O)c3ccc4c(c3)C(=O)C(C(=O)[C@H]3CSCN3C(=O)OC(C)(C)C)C4=O)cc2C1=O` (stereo partly drawn) [Example 221, tert-butyl (4S)-4-[5-({2-[(4S)-3-[(tert-butoxy)carbonyl]-1,3-thiazolidine-4-carbonyl]-1,3-dioxo-2,3-dihydro-1H-inden-5-yl}sulfonyl)-1,3-dioxo-2,3-dihydro-1H-indene-2-carbonyl]-1,3-thiazolidine-3-carboxylate]: the inhibition at 5 µM turned out to be 92%, the inhibition at 10 µM turned out to be 97% and the IC50 was determined as 2300 nM.
Take `C[C@H]1C[C@@H](C(=O)C2C(=O)c3ccc(C(=O)c4ccc5c(c4)C(=O)C(C(=O)[C@@H]4C[C@H](C)CN4C(=O)OC(C)(C)C)C5=O)cc3C2=O)N(C(=O)OC(C)(C)C)C1` (stereo partly drawn) [Example 132, tert-butyl (2S,4S)-2-(5-{2-[(2S,4S)-1-[(tert-butoxy)carbonyl]-4-methylpyrrolidine-2-carbonyl]-1,3-dioxo-2,3-dihydro-1H-indene-5-carbonyl}-1,3-dioxo-2,3-dihydro-1H-indene-2-carbonyl)-4-methylpyrrolidine-1-carboxylate]: the inhibition at 5 µM is 79%, the inhibition at 10 µM was 88% and the IC50 was 3500 nM.
Regarding `CN(CC(=O)C1C(=O)c2ccc(C(=O)c3ccc4c(c3)C(=O)C(C(=O)CN(C)C(=O)OC(C)(C)C)C4=O)cc2C1=O)C(=O)OC(C)(C)C` (centres unmarked) [Example 264, tert-butyl N-(2-{5-[2-(2-{[(tert-butoxy)carbonyl](methyl)amino}acetyl)-1,3-dioxo-2,3-dihydro-1H-indene-5-carbonyl]-1,3-dioxo-2,3-dihydro-1H-inden-2-yl}-2-oxoethyl)-N-methylcarbamate], the inhibition at 1 µM was 72%, the inhibition at 3 µM was determined as 75% and the IC50 is 9830 nM.
In the case of `O=C(NC1CCC1)C1C(=O)c2ccc(Oc3ccc4c(c3)C(=O)C(C(=O)NC3CCC3)C4=O)cc2C1=O` (centres unmarked) [Example 389, N-cyclobutyl-5-{[2-(cyclobutylcarbamoyl)-1,3-dioxo-2,3-dihydro-1H-inden-5-yl]oxy}-1,3-dioxo-2,3-dihydro-1H-indene-2-carboxamide], the inhibition at 1 µM was determined as 31% and the inhibition at 3 µM amounted to 80%.
Turning to `CC(=O)C1C(=O)c2ccc(-c3ccc4c(c3)C(=O)C(C(C)=O)C4=O)cc2C1=O` (centres unmarked) [Example 10, 2-acetyl-5-(2-acetyl-2,3-dihydro-1,3dioxo-1h-inden-5-yl)-2,3-dihydro-1,3-dioxo-1h-indene], the IC50 amounted to 1350 nM.
Turning to `CC(C)(C)OC(=O)N1C[C@@H]2[C@H](C1)[C@H]2C(=O)C1C(=O)c2ccc(-c3ccc4c(c3)C(=O)C(C(=O)[C@H]3[C@@H]5CN(C(=O)OC(C)(C)C)C[C@@H]53)C4=O)cc2C1=O` (stereo partly drawn) [Example 216, tert-butyl (1R,5S,6R)-6-{2′-[(1R,5S,6R)-3-[(tert-butoxy)carbonyl]-3-azabicyclo[3.1.0]hexane-6-carbonyl]-1,1′,3,3′-tetraoxo-1H,1′H,2H,2′H,3H,3′H-[5,5′-biindene]-2-carbonyl}-3-azabicyclo[3.1.0]hexane-3-carboxylate], the inhibition at 5 µM worked out at 82%, the inhibition at 10 µM turned out to be 91% and the IC50 is 2500 nM.
